In patent EP1911451A1, “Protein-kinase CK2 inhibitors and their therapeutic applications” (INSERM (Institut National de la Santé et de la Recherche …, priority 2006, dated 2008):
Read-outs that look alike come from different tables or passages of the source.

Assays:
CK2α [1] = target: T1, CK2α (Homo sapiens, UniProt P68400); assay: in vitro CK2 kinase assay (inhibition of catalytic activity); assay type: biochemical
Description: (§1) Lineweaver-Burk inhibition plots of CK2α in the presence of different concentrations of Quinobene (0; 0.1; 0.2; 0.4; 0.8 µM). • (A) variable concentrations of ATP with Peptide] = 500 µM. (B) variable concentrations of Peptide with [ATP] = 200 µM. […] Lineweaver-Burk inhibition plots of CK2α in the presence of different concentrations of CCB8 (0; 1.1; 2.2 µM for ATP competition assay; 0; 1.1 µM for peptide competition assay). (A) variable concentrations of ATP with [Peptide] = 166 µM. (B) variable concentrations of Peptide with [ATP] = 25 µM. […] A549 cells were treated for 48 hours with increasing concentrations of CCB8 (σ) or Naphtobene (ν). Cell viability was evaluated with the Cell Titer Glo kit (Promega).
4,4'-bis(8-hydroxy-5-sulfo-7-quinolineazo)stilbene-2,2'-disulfonic acid (Quinobene) or 4,4'-[(1-hydroxy-4-sulfo-2-naphtyl)azo] 2,2'-stilbenedisulfonic acid (Naphtobene) were obtained from the National Cancer Institute and screened for CK2 inhibitors using an in vitro CK2 kinase assay (Filhol et al., 1991).
CCB8 was tested in the in vitro CK2 assay.

CK2α [2] = target: T1, CK2α; assay: Lineweaver-Burk inhibition plots (ATP and peptide competition); assay type: biochemical; settings: for mode of inhibition: with respect to ATP or the phosphoacceptor peptide
Description: as §1

A549 cells = assay: Cancer cell viability (Cell Titer Glo kit); assay type: cell-based; settings: increasing concentrations, 48 hours
Description: as §1
A549 cells were treated with increasing concentrations of TBB 4,5,6,7-TetraBromoBenzotriazole (Calbiochem®) or Quinobene for 48 hours and the cell viability was monitored.

[3] = test system: non-small cell lung cancer cells (A549); assay: Confocal microscopic analysis of cell uptake; assay type: cell-based; settings: 100 µM, 48 hours, confocal microscopy
[4] = inhibition of CK2 catalytic activity, dose-dependent (Figure 2), read-out: half-maximal effective concentration
[5] = inhibition of the catalytic activity of recombinant CK2α, read-out: IC50

T1 sequence (P68400 whole entry): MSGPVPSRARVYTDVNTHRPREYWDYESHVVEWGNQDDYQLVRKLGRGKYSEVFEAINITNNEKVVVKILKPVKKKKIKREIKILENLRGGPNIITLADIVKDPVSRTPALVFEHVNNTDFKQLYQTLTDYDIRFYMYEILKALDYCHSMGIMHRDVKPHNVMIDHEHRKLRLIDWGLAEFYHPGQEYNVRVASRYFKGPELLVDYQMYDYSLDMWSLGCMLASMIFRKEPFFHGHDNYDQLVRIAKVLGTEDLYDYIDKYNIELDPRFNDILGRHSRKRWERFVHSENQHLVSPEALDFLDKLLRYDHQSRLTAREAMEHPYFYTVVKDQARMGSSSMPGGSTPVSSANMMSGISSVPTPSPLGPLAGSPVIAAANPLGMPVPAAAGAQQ

Row | SMILES | IC50 (CK2α [1]; inhibition of the catalytic activity of recombinant CK2α) [nM] | Ki (CK2α [2]; deduced from Lineweaver-Burk graph (Figure 5), read-out: Ki constant) [nM] | mode of inhibition (CK2α [2]) | cell viability / proapoptotic efficacy (A549 cells) | IC50 (CK2α [1]; [4]) [nM] | IC50 (CK2α [1]; [5]) [nM] | cell permeability [3]
1 | Nc1ccc(C(=O)O)cc1N=Nc1ccc(C=Cc2ccc(N=Nc3cc(C(=O)O)ccc3N)cc2S(=O)(=O)O)c(S(=O)(=O)O)c1 [CCB8] | 600 | 85 | non-competitive inhibitor | potency correlates with its proapoptotic efficacy | – | – | –
2 | O=S(=O)(O)c1cc(/N=N/c2cc(S(=O)(=O)O)c3ccccc3c2O)ccc1/C=C/c1ccc(/N=N/c2cc(S(=O)(=O)O)c3ccccc3c2O)cc1S(=O)(=O)O [Naphtobene, 4,4'-[(1-hydroxy-4-sulfo-2-naphtyl)azo] 2,2'-stilbenedisulfonic acid] | – | – | – | potency correlates with its proapoptotic efficacy | 300 | 300 | cell permeable
3 | O=S(=O)(O)c1cc(/N=N/c2cc(S(=O)(=O)O)c3cccnc3c2O)ccc1/C=C/c1ccc(/N=N/c2cc(S(=O)(=O)O)c3cccnc3c2O)cc1S(=O)(=O)O [Quinobene, 4,4'-bis(8-hydroxy-5-sulfo-7-quinolineazo)stilbene-2,2'-disulfonic acid] | – | – | non-competitive inhibitor | potency correlates with its proapoptotic efficacy | 130 | 130 | –
